Assay results published in patent US9193768B2, “Peptide for inhibition of binding between angiopoietin-2 and integrin and use thereof” (Samsung Electronics Co., Ltd., priority 2012, dated 2015).
Entries after “also recorded” stand apart in the source; their conditions may differ.

How the values were obtained:
[1] = tested on: U87MG cells; test: Ang2 dependent adhesion of U87MG cells to Ang2-coated wells (CellTiter-Glo luminescence); type: cell-based, human; conditions: for Ang2 dependent cell adhesion inhibition activity: Example 5.2, peptide 100 μg/ml, among the 41 peptides; for inhibition activity against the binding of Ang2 and integrin: FIG. 10, U87MG adhesion to Ang2-coated wells, each peptide 100 μg/ml
Method: A 96-well plate was treated with 100 μl of a solution obtained by diluting Ang2 (R&D systems; 623-AN-025/CF) in a phosphate buffered saline (PBS) at a concentration of 10 μg/ml and incubated at 4° C. for 16 hours so that the wells were coated with Ang2. Thereafter, the Ang2-coated 96 wells were washed twice with PBS, treated with 200 μl of PBS containing 2% (v/v) bovine serum albumin (BSA) and then incubated at a room temperature for 2 hours for blocking. For a negative control, wells that were blocked without Ang2 coating (i.e., treated with BSA only) were prepared.
150 μl of the thus obtained cell suspension was added to each well of the 96-well plate that was prepared by performing coating and blocking procedures and incubating the plate in a CO2 incubator at 37° C. for 2 hours to induce cell adhesion.
Then, the plate was washed 4 times with serum-free media that was warmed to 37° C. to remove cells that were not adhered. The adhesion level of cells was quantified by adding 200 μl of CellTiter-Glo reagent (Promega) diluted in IMDM at 1:1 and then, measuring luminescence at EnVision® Multilabel Reader (PerkinElmer) after 10 min.
When Ang2-coated plates were treated with U87MG cells in accordance with the same methods as in Example 1.1, they were co-treated with one of the 41 peptides derived from Ang2 set forth in Table 2 to investigate the inhibition effects of the peptides against the adhesion of U87MG cells (see FIG. 8). Each peptide was treated at a concentration of 100 μg/ml and the number of U87MG cells treated with each peptide was about 4×10^4. The measurement of cell adhesion level was carried out in the same manner as Example 1.1. That is, after the addition of 200 μl of CellTiter-Glo reagent (Promega) diluted in IMDM at 1:1, their luminescence was measured at EnVision® Multilabel Reader (PerkinElmer) after 10 min.
When Ang2-coated plates were treated with U87MG cells in accordance with the same methods as in Example 1.1, they were co-treated with the C-body produced in Example 8 to investigate inhibition effects of C-body treatment on the adhesion of U87MG cells. The C-body was treated at a concentration of 20 μg/ml or 5 μg/ml, and the number of U87MG cells used was about 4×10^4 at each concentration.

[2] = biological target: T1, integrin (αVβ3) (Homo sapiens, UniProt P05106+P06756); test: ELISA: binding of Ang2 protein (wild type or Q362A) to coated integrin; conditions: 5 μg/ml protein, FIG. 11
T1 construct: purchased R&D systems
T1 sequence (P06756 31-889 limits assumed): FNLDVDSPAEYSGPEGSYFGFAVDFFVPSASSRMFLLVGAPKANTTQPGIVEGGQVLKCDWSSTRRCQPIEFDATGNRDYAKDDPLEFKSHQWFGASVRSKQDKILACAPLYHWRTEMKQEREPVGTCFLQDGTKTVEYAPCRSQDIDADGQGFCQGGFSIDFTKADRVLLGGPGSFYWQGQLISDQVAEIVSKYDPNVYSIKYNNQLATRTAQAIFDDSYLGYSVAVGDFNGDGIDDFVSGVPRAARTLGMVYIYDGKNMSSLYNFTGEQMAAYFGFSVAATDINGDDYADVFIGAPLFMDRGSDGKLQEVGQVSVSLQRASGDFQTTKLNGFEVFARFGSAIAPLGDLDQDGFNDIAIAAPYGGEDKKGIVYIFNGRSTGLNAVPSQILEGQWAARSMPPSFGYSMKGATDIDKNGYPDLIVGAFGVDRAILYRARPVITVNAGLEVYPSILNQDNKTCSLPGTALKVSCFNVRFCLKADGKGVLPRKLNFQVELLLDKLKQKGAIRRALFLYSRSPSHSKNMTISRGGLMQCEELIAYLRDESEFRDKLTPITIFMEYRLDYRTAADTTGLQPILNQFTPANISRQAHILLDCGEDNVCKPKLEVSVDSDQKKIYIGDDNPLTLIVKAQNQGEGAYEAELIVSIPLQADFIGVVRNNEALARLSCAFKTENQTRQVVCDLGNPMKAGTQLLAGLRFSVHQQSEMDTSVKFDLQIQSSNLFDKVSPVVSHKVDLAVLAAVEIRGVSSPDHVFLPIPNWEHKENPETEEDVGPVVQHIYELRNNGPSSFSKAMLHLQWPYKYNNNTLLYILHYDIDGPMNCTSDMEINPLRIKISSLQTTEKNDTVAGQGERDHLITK
T1 sequence (P06756 891-992 partner limits assumed): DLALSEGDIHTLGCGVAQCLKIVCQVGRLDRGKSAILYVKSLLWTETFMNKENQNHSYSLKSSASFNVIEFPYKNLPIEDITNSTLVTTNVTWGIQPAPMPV
T1 sequence (P05106 27-718 limits assumed): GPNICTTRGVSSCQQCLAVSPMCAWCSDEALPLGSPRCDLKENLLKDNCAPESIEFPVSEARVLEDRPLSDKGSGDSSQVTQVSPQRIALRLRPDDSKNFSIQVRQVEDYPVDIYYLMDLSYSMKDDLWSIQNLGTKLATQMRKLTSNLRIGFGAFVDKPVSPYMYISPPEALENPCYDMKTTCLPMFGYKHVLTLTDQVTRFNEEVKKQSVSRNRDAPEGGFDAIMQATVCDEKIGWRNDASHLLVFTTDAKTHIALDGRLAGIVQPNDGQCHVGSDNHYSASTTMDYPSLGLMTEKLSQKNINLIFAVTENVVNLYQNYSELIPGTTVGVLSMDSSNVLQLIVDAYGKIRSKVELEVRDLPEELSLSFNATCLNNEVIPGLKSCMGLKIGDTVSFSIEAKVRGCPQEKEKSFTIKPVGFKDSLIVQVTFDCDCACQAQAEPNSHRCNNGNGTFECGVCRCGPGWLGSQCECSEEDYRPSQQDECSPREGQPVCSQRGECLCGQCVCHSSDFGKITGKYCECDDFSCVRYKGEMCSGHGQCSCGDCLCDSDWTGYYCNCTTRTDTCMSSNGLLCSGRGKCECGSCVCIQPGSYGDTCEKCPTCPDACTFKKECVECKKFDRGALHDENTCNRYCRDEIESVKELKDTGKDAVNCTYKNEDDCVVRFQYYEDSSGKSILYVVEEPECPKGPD
Method: After an ELISA plate was coated with diluents obtained by diluting 3 kinds of integrin proteins (alpha5beta1 (α5β1; α5: NCBI Accession No. P08648, β1: NCBI Accession No. P05556), alphaVbeta1 (αVβ1; αV: NCBI Accession No. P06756, β1: NCBI Accession No. P05556), and alphaVbeta3 (αVβ3; αV: NCBI Accession No. P06756, β3: NCBI Accession No. P05106); R&D systems)) in PBS at a concentration of 5 μg/ml (18 hours, 4° C.), it was blocked with 1% (v/v) BSA at a room temperature for 2 hours. Thereafter, it was treated with Ang2 protein having FLAG sequences (DYKDDDDK, Sigma) tagged at its N-terminal (FLAG-Ang2, 0.1 ml of Ang2 protein solution diluted in PBS at a concentration of 10 μg/ml), incubated at a room temperature for 2 hours, and washed 5 times with PBS-t (0.1% (v/v) triton X-100 in PBS). Then, it was followed by the addition of anti-FLAG antibody (Sigma) conjugated with horse radish peroxidase (HRP) and washed 5 times with PBS-t. Binding between Ang2 and 3 kinds of the integrins was verified indirectly by measuring the quantity of anti-FLAG antibody remaining in the ELISA plate through color development reaction using TMB (3,3,5,5-tetramethylbenzidine) as a substrate of HRP. As a negative control, one plate which was blocked without Ang2 protein treatment (BSA treatment only) was used. […]

[3] = tested on: U87MG cells; test: U87MG cancer cell invasion in matrigel-coated transwell chamber; type: cell-based, human; conditions: 5 μg/ml in lower chamber, 48 hours; FIG. 14
Method: U87MG cells which underwent serum starvation for two days were detached using a cell dissociation solution (EDTA solution) and diluted in 0% serum IMDM media, and then 7.5×10^4 of the cells were each treated in an upper chamber of a matrigel-coated transwell chamber (24 wells, BD bioscience). Lower chambers were filled with a diluent obtained by diluting wild type Ang2 protein or its Q362A modified form (see Example 6) in 2% serum IMDM media at a concentration of 5 μg/ml. After 48 hours passed, the cells were dyed using calcein-AM solution (4 μg/ml; BD Biosciences) and observed using a fluorescence microscope to measure the number of the cells which invaded toward the bottom.
The left part of FIG. 14 indicates the number of the cells that migrated to the lower chambers, and the right part illustrates the observation results of fluorescence treatment of the cells which migrated to the lower chambers, using a fluorescence microscope. In FIG. 14, ‘−’ indicates a negative control where the lower chamber was not treated with Ang2 protein or its modified form.

[4] = biological target: T2, Tie2 proteins (Q02763) (Homo sapiens, UniProt Q02763); test: ELISA: binding of Ang2 protein (wild type or Q362A) to coated Tie2; conditions: Tie2 coated ELISA plates; FIG. 12
T2 construct: purchased R&D systems
T2 sequence (Q02763 23-1124): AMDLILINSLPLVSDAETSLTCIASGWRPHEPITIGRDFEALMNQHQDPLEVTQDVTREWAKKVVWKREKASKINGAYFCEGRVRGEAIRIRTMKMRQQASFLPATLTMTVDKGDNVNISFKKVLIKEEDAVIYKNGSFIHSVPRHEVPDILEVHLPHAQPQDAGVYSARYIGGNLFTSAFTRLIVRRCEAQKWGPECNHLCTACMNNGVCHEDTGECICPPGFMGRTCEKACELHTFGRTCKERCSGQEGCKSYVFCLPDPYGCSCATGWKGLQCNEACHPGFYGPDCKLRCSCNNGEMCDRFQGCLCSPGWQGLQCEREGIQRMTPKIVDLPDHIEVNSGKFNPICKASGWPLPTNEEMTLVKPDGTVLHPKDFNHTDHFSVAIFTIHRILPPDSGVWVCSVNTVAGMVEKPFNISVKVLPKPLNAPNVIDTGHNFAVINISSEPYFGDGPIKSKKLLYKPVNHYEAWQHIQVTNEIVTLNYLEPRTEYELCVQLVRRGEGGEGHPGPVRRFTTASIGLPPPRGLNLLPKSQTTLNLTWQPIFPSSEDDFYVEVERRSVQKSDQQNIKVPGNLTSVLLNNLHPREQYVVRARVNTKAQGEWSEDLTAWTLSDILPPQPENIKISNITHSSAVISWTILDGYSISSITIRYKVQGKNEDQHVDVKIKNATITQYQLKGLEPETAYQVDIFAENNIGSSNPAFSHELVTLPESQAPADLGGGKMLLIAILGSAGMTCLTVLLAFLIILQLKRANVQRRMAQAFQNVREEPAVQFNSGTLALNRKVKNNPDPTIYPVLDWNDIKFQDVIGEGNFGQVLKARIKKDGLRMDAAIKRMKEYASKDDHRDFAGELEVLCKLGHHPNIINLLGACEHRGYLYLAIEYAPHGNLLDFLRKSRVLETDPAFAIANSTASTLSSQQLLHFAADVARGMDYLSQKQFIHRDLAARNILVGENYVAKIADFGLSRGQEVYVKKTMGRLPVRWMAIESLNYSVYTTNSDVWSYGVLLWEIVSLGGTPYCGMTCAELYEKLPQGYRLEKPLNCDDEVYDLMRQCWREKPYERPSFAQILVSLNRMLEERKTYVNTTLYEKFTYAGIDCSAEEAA
Description: The Y axis represents binding levels of each Ang2 protein to coated Tie2 or negative control BSA.

Row | Molecule | inhibition activity against the binding of Ang2 and integrin [1] | further results
1 | EYWLG NEFVS QLTNQ (EYWLGNEFVSQLTNQ; Synthetic Peptide 15) [SEQ ID No. 15, 15 consecutive amino acids (352 to 366) of the Ang2 protein] | remarkably high inhibition activity | Ang2 dependent cell adhesion inhibition activity ([1]; listed as 15): best Ang2 dependent cell adhesion inhibition activity; Ang2 dependent cell adhesion inhibition activity ([1]; listed as Peptide 15): excellent Ang2-dependent cell adhesion inhibition activity
2 | HTTNG IYTLT FPNST (HTTNGIYTLTFPNST; Synthetic Peptide 3) [SEQ ID No. 3] | remarkably high inhibition activity; also recorded: excellent integrin-Ang2 binding inhibition activity | 
3 | IYTLT FPNST EEIKA (IYTLTFPNSTEEIKA; Synthetic Peptide 4) [SEQ ID No. 4] | remarkably high inhibition activity; also recorded: excellent integrin-Ang2 binding inhibition activity | 
4 | LNYRI HLKGL TGTAG (LNYRIHLKGLTGTAG; Synthetic Peptide 24) [SEQ ID No. 24] | remarkably high inhibition activity | 
5 | NEFVS QLTNQ QRYVL (NEFVSQLTNQQRYVL; Synthetic Peptide 16) [SEQ ID No. 16] | remarkably high inhibition activity | 
6 | QLTNQ QRYVL KIHLK (QLTNQQRYVLKIHLK; Synthetic Peptide 17) [SEQ ID No. 17] | remarkably high inhibition activity | 
7 | WKGSG YSLKA TTMMI (WKGSGYSLKATTMMI; Synthetic Peptide 40) [SEQ ID No. 40] | remarkably high inhibition activity | 
8 | Q362A: FLAG-Ang2 protein modified form where glutamine at amino acid 362 (SEQ ID No. 42) is substituted by alanine (protein, FLAG tag; Human Ang2 protein) MWQIVFFTLSCDLVLAAAYNNFRKSMDSIGKKQYQVQHGSCSYTFLLPEMDNCRSSSSPYVSNAVQRDAPLEYDDSVQRLQVLENIMENNTQWLMKLENYIQDNMKKEMVEIQQNAVQNQTAVMIEIGTNLLNQTAEQTRKLTDVEAQVLNQTTRLELQLLEHSLSTNKLEKQILDQTSEINKLQDKNSFLEKKVLAMEDKHIIQLQSIKEEKDQLQVLVSKQNSIIEELEKKIVTATVNNSVLQKQQHDLMETVNNLLTMMSTSNSAKDPTVAKEEQISFRDCAEVFKSGHTTNGIYTLTFPNSTEEIKAYCDMEAGGGGWTIIQRREDGSVDFQRTWKEYKVGFGNPSGEYWLGNEFVSALTNQQRYVLKIHLKDWEGNEAYSLYEHFYLSSEELNYRIHLKGLTGTAGKISSISQPGNDFSTKDGDNDKCICKCSQMLTGGWWFDACGPSNLNGMYYPQRQNTNKFNGIKWYYWKGSGYSLKATTMMIRPADF |  | binding level to integrin relative to wild type Ang2 [2]: ≤ 50%; inhibition of Ang2-integrin binding by Q362A modification [2]: ≥ 50%; induction level of cancer cell invasion compared with wild type Ang2 protein [3]: remarkably low induction level of cancer cell invasion (approximately half or so); binding level to Tie2 compared with wild type Ang2 [4]: did not show any significant differences
